How the values were obtained:
Type in all cases: cell-based
[1] = molecular target: T1, human PPARγ (182–505aa) ligand binding domain (Homo sapiens, UniProt P37231); assay: PPAR transfection (Gal4-LBD luciferase reporter) assay, hPPARγ; settings: for activation factor, hPPARγ (FIGS. 1 to 5): at 10-fold concentration of EC50 value in activation of hPPARα, ratio to DMSO control; for EC50: 16 hours, luciferase activity, read-out: hPPAR, EC50 γ (agonist activity)
T1 construct: γ(182–505aa); expressed in transfected cells; host or cells: COS-7
T1 sequence (P37231 182-505): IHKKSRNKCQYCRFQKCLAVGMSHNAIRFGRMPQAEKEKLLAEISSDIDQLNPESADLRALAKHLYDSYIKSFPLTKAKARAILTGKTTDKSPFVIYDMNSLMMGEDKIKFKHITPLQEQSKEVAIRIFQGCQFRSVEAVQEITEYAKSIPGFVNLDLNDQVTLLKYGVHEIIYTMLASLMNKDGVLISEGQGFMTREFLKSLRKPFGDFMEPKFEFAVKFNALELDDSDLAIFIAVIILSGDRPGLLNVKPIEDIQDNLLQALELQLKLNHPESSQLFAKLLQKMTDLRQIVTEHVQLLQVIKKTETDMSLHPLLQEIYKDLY
Experimental: (§1) COS-7 cells, which is African green monkey kidney cell line, were used for all transfection assays. Cells were cultured in DMEM medium supplemented with 10% fetal bovine serum, glutamic acid, and an antibiotic under humidified 5% CO2 atmosphere.
(§2) Cells were transfected by lipofectamine reagent with a mixture containing expression plasmid, firefly luciferase reporter plasmid. And a β-galactosidase expression plasmid used as an internal control for transfection efficiency.
(§3) Transiently transfected cells were incubated with DMEM with 0.2% FCS with or without compound. And after 16 hours, luciferase activity and β-galactosidase activity of cell lysate were measured.
(§4) Each compound was dissolved in and diluted with dimethyl sulfoxide (DMSO), and the DMSO concentration of the DMEM medium (containing 0.2% serum) was adjusted to 0.1% upon treatment of cells.

[2] = molecular target: T2, human PPARα (166–467aa) ligand binding domain (Homo sapiens, UniProt Q07869); assay: PPAR transfection (Gal4-LBD luciferase reporter) assay, hPPARα; settings: for EC50: 16 hours, luciferase activity, read-out: hPPAR, EC50 α (agonist activity)
T2 construct: human PPARα (166–467aa); expressed in transfected cells; host or cells: COS-7
T2 sequence (Q07869 166-467): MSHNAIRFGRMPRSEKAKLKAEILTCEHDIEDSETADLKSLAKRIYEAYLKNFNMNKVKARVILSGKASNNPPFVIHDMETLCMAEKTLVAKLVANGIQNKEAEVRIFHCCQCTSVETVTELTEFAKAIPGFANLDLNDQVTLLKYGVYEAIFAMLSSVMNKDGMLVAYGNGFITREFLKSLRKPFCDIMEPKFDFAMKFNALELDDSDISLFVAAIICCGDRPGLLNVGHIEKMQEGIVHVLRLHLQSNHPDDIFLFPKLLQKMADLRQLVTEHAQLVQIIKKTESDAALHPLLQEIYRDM
Experimental: as §1, §2, §3, §4

[3] = molecular target: T3, human PPARδ (137–441aa) ligand binding domain (Homo sapiens, UniProt Q03181); assay: PPAR transfection (Gal4-LBD luciferase reporter) assay, hPPARδ; settings: for activation factor, hPPARδ (FIGS. 1 to 5): at 10-fold concentration of EC50 value in activation of hPPARα, ratio to DMSO control; for EC50: 16 hours, luciferase activity, read-out: hPPAR, EC50 δ (agonist activity)
T3 construct: δ (137–441aa); expressed in transfected cells; host or cells: COS-7
T3 sequence (Q03181 137-441): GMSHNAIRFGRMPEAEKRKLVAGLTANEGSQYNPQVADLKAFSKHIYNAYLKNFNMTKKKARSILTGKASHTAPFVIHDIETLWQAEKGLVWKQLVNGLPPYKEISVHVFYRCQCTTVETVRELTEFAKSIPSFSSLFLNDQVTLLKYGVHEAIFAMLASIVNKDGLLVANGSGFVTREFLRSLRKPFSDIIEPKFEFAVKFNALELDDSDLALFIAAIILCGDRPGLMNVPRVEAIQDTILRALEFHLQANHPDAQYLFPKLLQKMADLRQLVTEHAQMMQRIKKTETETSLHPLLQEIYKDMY
Experimental: as §1, §2, §3, §4

Compound	activation factor, hPPARγ (FIGS. 1 to 5) [1]	EC50 ([1]; transfected COS-7 cells) [µM]	EC50 ([2]; transfected COS-7 cells) [µM]	activation factor, hPPARδ (FIGS. 1 to 5) [3]	EC50 ([3]; transfected COS-7 cells) [µM]	activation of hPPARγ isoform ([1]; transfected COS-7 cells)	activation factor, hPPARα (FIGS. 1 to 5) ([2]; at EC50 value in activation of hPPARα and at 10 times that concentration, ratio to DMSO control)	activation of hPPARα isoform ([2]; transfected COS-7 cells)	activation of hPPARδ isoform ([3]; transfected COS-7 cells)
CC(C)(Oc1ccc(CCCN(CCc2ccccc2)c2nc3ccccc3s2)cc1)C(=O)O [Compound A]	strongly activate	0.2	0.1	strongly activate	0.4	–	–	–	–
CC(C)(Oc1ccc(CCCN(CCc2ccccc2)C(=O)c2nc3ccccc3s2)cc1)C(=O)O [Compound B, reference compound]	strongly activate	0.7	0.12	strongly activate	0.9	–	–	–	–
CC(C)(Oc1ccc(CCCN(CCc2ccccc2)c2nc3ccccc3[nH]2)cc1)C(=O)O [Compound C, reference compound]	activated no hPPAR isoform	–	–	activated no hPPAR isoform	–	no activation	activated no hPPAR isoform	no activation	no activation
CCC(Oc1cccc(CN(CCCOc2ccc(F)cc2)c2nc3ccccc3o2)c1)C(=O)O (stereo not drawn) [Example 1, 2-[3-[[N-(Benzoxazol-2-yl)-N-3-(4-fluorophenoxy)propyl]aminomethyl]phenoxy]butyric acid]	substantially no activation	> 100	0.01	substantially no activation	1.6	–	–	–	–
CCC(Oc1cccc(CN(CCOc2ccc(Cl)cc2)c2nc3ccccc3o2)c1)C(=O)O (stereo not drawn) [Example 2, 2-[3-[[N-(Benzoxazol-2-yl)-N-2-(4-chlorophenoxy)ethyl]aminomethyl]phenoxy]butyric acid]	substantially no activation	7.3	0.01	substantially no activation	2.5	–	–	–	–
CCC(Oc1cccc(CN(CCOc2ccc(F)cc2)c2nc3ccccc3o2)c1)C(=O)O (stereo not drawn) [Example 3, 2-[3-[[N-(Benzoxazol-2-yl)-N-2-(4-fluorophenoxy)ethyl]aminomethyl]phenoxy]butyric acid]	–	> 100	0.01	–	1.8	–	–	–	–
CC(C)(Oc1cccc(CN(CCOc2ccc(Cl)cc2)c2nc3ccccc3o2)c1)C(=O)O [Example 6, 2-[3-[[N-(Benzoxazol-2-yl)-N-2-(4-chlorophenoxy)ethyl]aminomethyl]phenoxy]-2-methylpropionic acid]	–	3.5	0.07	–	> 100	–	–	–	–
CC(Oc1cccc(CN(CCCOc2ccccc2)c2nc3ccccc3o2)c1)C(=O)O (stereo not drawn) [Example 9, 2-[3-[[N-(Benzoxazol-2-yl)-N-3-phenoxypropyl]aminomethyl]phenoxy]propionic acid]	–	1.2	0.01	–	2.4	–	–	–	–
O=C(O)COc1cccc(CN(CCCOc2ccccc2)c2nc3ccccc3o2)c1 [Example 12, 3-[[N-(Benzoxazol-2-yl)-N-3-phenoxypropyl]aminomethyl]phenoxyacetic acid]	–	> 100	1.2	–	> 100	–	–	–	–
CCC(Oc1cccc(CN(CCCOc2ccccc2)c2nc3ccccc3o2)c1)C(=O)O (stereo not drawn) [Example 13, 2-[3-[[N-(Benzoxazol-2-yl)-N-3-phenoxypropyl]aminomethyl]phenoxy]butyric acid]	–	> 50	0.01	–	2	–	–	–	–
CCC(Oc1cccc(CN(CCCOc2ccc(OC)cc2)c2nc3ccccc3o2)c1)C(=O)O (stereo not drawn) [Example 14, 2-[3-[[N-(Benzoxazol-2-yl)-N-3-(4-methoxyphenoxy)propyl]aminomethyl]phenoxy]butyric acid]	–	> 100	–	–	1.7	–	–	–	–

Next, values leading:

activation factor, hPPARγ (FIGS. 1 to 5) [1]	EC50 ([1]; transfected COS-7 cells) [µM]	EC50 ([2]; transfected COS-7 cells) [µM]	activation factor, hPPARδ (FIGS. 1 to 5) [3]	EC50 ([3]; transfected COS-7 cells) [µM]	activation of hPPARγ isoform ([1]; transfected COS-7 cells)	activation factor, hPPARα (FIGS. 1 to 5) ([2]; at EC50 value in activation of hPPARα and at 10 times that concentration, ratio to DMSO control)	activation of hPPARα isoform ([2]; transfected COS-7 cells)	activation of hPPARδ isoform ([3]; transfected COS-7 cells)	Compound
–	> 100	0.05	–	1.5	–	–	–	–	COc1ccc(OCCCN(Cc2cccc(OC(C)(C)C(=O)O)c2)c2nc3ccccc3o2)cc1 [Example 15, 2-[3-[[N-(Benzoxazol-2-yl)-N-3-(4-methoxyphenoxy)propyl]aminomethyl]phenoxy]-2-methylpropionic acid]
–	1.2	0.07	–	> 100	–	–	–	–	CC(Oc1cccc(CN(CCOc2ccccc2)c2nc3ccccc3o2)c1)C(=O)O (stereo not drawn) [Example 18, 2-[3-[[N-(Benzoxazol-2-yl)-N-2-phenoxyethyl]aminomethyl]phenoxy]propionic acid]
–	1.2	0.0001	–	> 100	–	–	–	–	CC(Oc1cccc(CN(CCCOc2cccc(N(C)C)c2)c2nc3ccccc3o2)c1)C(=O)O (stereo not drawn) [Example 19, 2-[3-[[N-(Benzoxazol-2-yl)-N-3-(3-dimethylaminophenoxy)propyl]aminomethyl]phenoxy]propionic acid]
–	1.2	0.01	–	2	–	–	–	–	COc1ccc(OCCCN(Cc2cccc(OC(C)C(=O)O)c2)c2nc3ccccc3o2)cc1 (stereo not drawn) [Example 20, 2-[3-[[N-(Benzoxazol-2-yl)-N-3-(4-methoxyphenoxy)propyl]aminomethyl]phenoxy]propionic acid]
–	1.4	0.03	–	2.3	–	–	–	–	CCC(Oc1cccc(CN(CCOc2ccccc2)c2nc3ccccc3o2)c1)C(=O)O (stereo not drawn) [Example 24, 2-[3-[[N-(Benzoxazol-2-yl)-N-2-phenoxyethyl]aminomethyl]phenoxy]butyric acid]
–	> 100	0.09	–	> 50	–	–	–	–	CC(Oc1cccc(CCN(CCOc2ccccc2)c2nc3ccccc3o2)c1)C(=O)O (stereo not drawn) [Example 31, 2-[3-[2-[N-(Benzoxazol-2-yl)-N-2-phenoxyethyl]aminoethyl]phenoxy]propionic acid]
–	1.2	0.06	–	1.6	–	–	–	–	CC(Oc1cccc(CCN(CCOc2ccc(F)cc2)c2nc3ccccc3o2)c1)C(=O)O (stereo not drawn) [Example 34, 2-[3-[2-[N-(Benzoxazol-2-yl)-N-2-(4-fluorophenoxy)ethyl]aminoethyl]phenoxy]propionic acid]
–	1.2	0.02	–	1.6	–	–	–	–	CC(Oc1cccc(CCN(CCOc2ccc(F)cc2)c2nc3cc(F)ccc3o2)c1)C(=O)O (stereo not drawn) [Example 35, 2-[3-[2-[N-(5-Fluorobenzoxazol-2-yl)-N-2-(4-fluorophenoxy)ethyl]aminoethyl]phenoxy]propionic acid]
–	2.1	0.05	–	1.6	–	–	–	–	CC(Oc1cccc(CCN(CCOc2ccc(F)cc2)c2nc3cc(Cl)ccc3o2)c1)C(=O)O (stereo not drawn) [Example 36, 2-[3-[2-[N-(5-Chlorobenzoxazol-2-yl)-N-2-(4-fluorophenoxy)ethyl]aminoethyl]phenoxy]propionic acid]
–	4.2	0.07	–	1.5	–	–	–	–	COc1ccc2oc(N(CCOc3ccc(F)cc3)CCc3cccc(OC(C)C(=O)O)c3)nc2c1 (stereo not drawn) [Example 37, 2-[3-[2-[N-2-(4-Fluorphenoxy)ethyl-N-(5-methoxybenzoxazol-2-yl)]aminoethyl]phenoxy]propionic acid]
–	1.5	0.05	–	1.4	–	–	–	–	CCC(Oc1cccc(CCN(CCCOc2ccccc2)c2nc3ccccc3o2)c1)C(=O)O (stereo not drawn) [Example 38, 2-[3-[2-[N-(Benzoxazol-2-yl)-N-3-phenoxypropyl]aminoethyl]phenoxy]butyric acid]
–	1.1	–	–	1.6	–	–	–	–	CC[C@@H](Oc1cccc(CN(CCCOc2ccc(OC)cc2)c2nc3ccccc3o2)c1)C(=O)O [Example 85, (R)-2-[[3-[N-(Benzoxazol-2-yl)-N-3-(4-methoxyphenoxy)propyl]aminomethyl]phenoxy]butyric acid]
